Here are results for four compounds from PMC7170309, “Imidazopyridine-fused [1,3]diazepinones: modulations of positions 2 to 4 and their impacts on the anti-melanoma activity” (Journal of Enzyme Inhibition and Medicinal Chemistry, 2020).

Molecules are shown by their SMILES.

A short description of data set [1]: Calculated physicochemical parameters (molsoft cheminformatic tool). As to conditions: predicted. On the procedure: Data set of physicochemical properties (cLogP, TPSA and molecular volume, Table 2) were calculated using the online available molsoft cheminformatic tool[23]. IC50 values of the compounds included in the test are presented in Table 1 for the correlations between IC50 and physicochemical properties of compounds modified in position 2 (Figure 2), and in Table S1 (SI) for the correlations between in vitro anti-cancer activity of JMV5038, compound 5 and […] on the NCI cell line panel (Figure 4). Pearson’s correlation coefficient r and level of significant p values were calculated using Origin Pro 2019.

For a further data set, the system named is MDA-MB-435 cells. Kind of data set: DNA cell cycle analysis (flow cytometry). The format is cell-based, human. The following applies: 5 µM; for proportion of cells in G2/M phase: control 14.3%; for proportion of cells in G1 phase: control 47.1%. On the procedure: The cell cycle analysis was performed as previously described to compare data with our previous results. Flow cytometric analysis was performed on 350,000 MDA-MB-435 cells seeded in culture dishes (60 mm diameter) and allowed to grow for 48 h. Cells were then treated with compound 5 or 8 at 5 µM concentration for 16 h and 48 h. After treatment cells were harvested and fixed with 70% ethanol. The fixed cells were then incubated with 10 mg/mL RNase A (Sigma Aldrich) and 1 mg/mL propidium iodide (Sigma Aldrich), in the dark, for 24 h at 4 °C. Finally, DNA content of the cells was analysed using Gallios Beckman Coulter flow cytometer with FlowJo software v1.0.
Thus, compound 5 could probably shared a common mechanism of action with JMV5038, contrary to compound 8. DNA cell cycle analysis was performed using MDA-MB-435 cells treated with either compound 5 or compound 8, and compared to that obtained with cells treated with vehicle (DMSO) as a negative control. Cell cycle pattern changes of MDA-MB-435 cells were investigated using fluorescence-activated cell sorting (FACS) (Figure 5 and Figure S1, SI). In this experiment MDA-MB-435 cells were treated with or without 5 µM concentration of compound 5 or 8 for 16 h and 48 h.

The next data set has as its system HCT-15. Kind of data set: NCI-60 SRB assay, HCT-15 (Colon Cancer). The format is cell-based, human. The following applies: 10 µM, 48 h; for G%: growth vs untreated control. On the procedure: (§1) Primary anticancer assay was performed on a panel of 60 human cancer cell lines derived from nine neoplastic diseases, in accordance with the protocol of the Drug Evaluation Branch, National Cancer Institute, Bethesda, Maryland, USA[22]. Cells were incubated with tested compounds at 10 µM for 48 h. The growth percentage was evaluated spectrophotometrically using a protein binding dye, SRB. Results for each tested compound were reported as the percent of growth of treated cells when compared to untreated control cells.
(§2) To better compare the activity profile of these two series of compounds, compounds 5 and 8 were selected and then evaluated towards a panel of sixty cancer cell lines corresponding to nine different cancer types, i.e. leukaemia, melanoma, as well as lung, colon, central nervous system, ovarian, renal, prostate and breast cancers (NCI evaluation). Indeed, it is now well established that the growth inhibitory patterns of anticancer drugs against the NCI-60 cell line panel correlated well with their modes of action. For example, compounds that bind to tubulin have similar growth inhibition patterns regardless of which site on tubulin they bind[30]. […] Compounds were tested using the sulforhodamine B (SRB) assay that provides a direct cell density index. The amount of dye incorporated by the cells increases with the increase of the total protein biomass. Cells were incubated for 48 h with compounds at 10 µM concentration, then cell growth was evaluated spectrophotometrically and presented as the percent of untreated control cells. Values of the most sensitive cell lines were compared to those obtained with JMV5038 (Figure 4, for all data see SI).

The next data set deals with PC-3. Kind of data set: NCI-60 SRB assay, PC-3 (Prostate Cancer). The format is cell-based, human. The following applies: 10 µM, 48 h; for G%: growth vs untreated control. As to the method: as §1, §2
The test system of a further data set is HL-60(TB). Kind of data set: NCI-60 SRB assay, HL-60(TB) (Leukemia). The format is cell-based, human. As to conditions: 10 µM, 48 h; for G%: growth vs untreated control. As to the method: as §1, §2
The next data set relates to K-562. As to the kind of experiment: NCI-60 SRB assay, K-562 (Leukemia). Type of data set: cell-based, human. The following applies: 10 µM, 48 h; for G%: growth vs untreated control. As to the method:
as §1, §2

Another data set relates to RPMI-8226. Kind of data set: NCI-60 SRB assay, RPMI-8226 (Leukemia). The format is cell-based, human. The following applies: 10 µM, 48 h; for G%: growth vs untreated control. On the procedure:
as §1, §2

For data set [2], the system named is NIH-3T3 non-cancerous cells. Further details: method as in PMID 24561668. The following applies: even at 100 µM; cited from earlier work.

For the compound `C[C@@H]1NC(c2ccc(N=[N+]=[N-])cc2)=Nc2nc3ccccn3c2C1=O` [Compound 5, (4S)-4-methyl-2-(4-azidophenyl)-3,4-dihydro-5H-pyrido[1’,2’:1,2]imidazo[4,5-d][1,3]diazepin-5-one], the “molecular volume increase compared to JMV5038” value in data set [1] is 4%. Further, in the data set with MDA-MB-435 cells (16 h), the “proportion of cells in G2/M phase” value is 33.1% and the “proportion of cells in G1 phase” value is reported as “decrease of cells in G1 phase”. Further, the “proportion of cells in G2/M phase” value with MDA-MB-435 cells (48 h) was 18.4%. Moreover, the “cells in subG1 phase (apoptosis)” value with MDA-MB-435 cells (time not explicit (sentence follows 48 h), control 1.2%) came out at 2.4%. For the same compound, in the data set on HCT-15, the “Mean G% - G%” value is listed as 16,87% and the G% is recorded as 68,39%. Further, in the data set with PC-3, the “Mean G% - G%” value is listed as -10,97% and the G% is 96,23%.
For `[N-]=[N+]=NCCCC[C@@H]1NC(c2ccc(Br)cc2)=Nc2nc3ccccn3c2C1=O` [Compound 16, (4S)-4-(4-azidobutyl)-2-(4-bromophenyl)-3,4-dihydro-5H-pyrido[1’,2’:1,2]imidazo[4,5-d][1,3]diazepin-5-one], the entries for the “Mean G% - G%” value in the data set with HL-60(TB), with HCT-15 and in the data set with PC-3 were 18,52%, -6,56% and -10,51%, respectively. The G% in the data set with HL-60(TB) is listed as 73,25%; in the data set with HCT-15, 98,33%; in the data set on PC-3 it was 102,28%.
As to `C[C@@H]1NC(c2csc3ccccc23)=Nc2nc3ccccn3c2C1=O` [Compound 8, (4S)-4-methyl-2-benzothiophen-3-yl-3,4-dihydro-5H-pyrido[1’,2’:1,2]imidazo[4,5-d][1,3]diazepin-5-one], the “proportion of cells in G2/M phase” value is 20.8% with MDA-MB-435 cells (16 h) and 15.4% in the data set on MDA-MB-435 cells (48 h). Besides, the “proportion of cells in G1 phase” value in the data set on MDA-MB-435 cells (16 h) stood at 53.0%. The “Mean G% - G%” value is listed as 6,00% with HL-60(TB); -6,34% with K-562; 24,51% in the data set with RPMI-8226; -1,17% in the data set on HCT-15; -2,69% in the data set with PC-3. The G% in the data set with HL-60(TB) is 68,87%; with K-562, 81,21%; in the data set with RPMI-8226, 50,36%; in the data set with HCT-15, 76,04%; in the data set with PC-3 it was 77,56%.
With `C[C@@H]1NC(c2ccc(Br)cc2)=Nc2nc3ccccn3c2C1=O` [JMV5038], the “Mean G% - G%” value is 29,92% in the data set with K-562, -39,73% in the data set on RPMI-8226, 23,49% in the data set on HCT-15 and -8,96% in the data set with PC-3. Further, the G% in the data set on K-562 is 24,32%; in the data set with RPMI-8226, 93,97%; in the data set with HCT-15, 30,75%; with PC-3 it was 63,20%. The “cytotoxic activity on NIH-3T3 fibroblasts” value in data set [2] is “no significant cytotoxic activity”.
